Experimental data from US20240285552A1 (priority 2020, published 2024).
Where two headings read alike, the source gives them in different places. Residues, ends and D or L forms follow the SMILES beside them. *: point of attachment. Cbz = O=C(OCc1ccccc1)*; CH2F = FC*

Key:
[1] = test system: SARS CoV-2 nanoluciferase reporter virus; assay: microbe, parasite or virus in culture; assay type: cell-based; details: for Concentration at Maximum % Inhibition / Maximum Inhibition: A549-ACE2, NLRV; for IC50: read-out: IC50, viral replication, Nanoluciferase Reporter Virus Assay
Vero E6 cells = details: Example C (Table 4); for Conc. at Max. % Viability / Conc. at Min. % Viability / Max. Viability / Min. Viability: Vero E6
SARS-CoV-2 USA_WA1/2020 = assay: microbe, parasite or virus in culture; assay type: cell-based
in vitro [2] = details: African green monkey
[3] = molecular target: T1, rhACE2 and SARS-CoV-2 Spike (RBD) protein interaction (Homo sapiens, UniProt Q9BYF1); assay: Spike (RBD)-ACE2 binding assay (ELISA); set-up: species or system human; SARS-CoV-2; details: bell shaped dose-response curve; CLQ series; read-out: IC50_2, ACE2-Spike (RBD) protein interaction
T1 construct: purchased RayBiotech CoV-SACE2-1
T1 sequence (Q9BYF1 18-740): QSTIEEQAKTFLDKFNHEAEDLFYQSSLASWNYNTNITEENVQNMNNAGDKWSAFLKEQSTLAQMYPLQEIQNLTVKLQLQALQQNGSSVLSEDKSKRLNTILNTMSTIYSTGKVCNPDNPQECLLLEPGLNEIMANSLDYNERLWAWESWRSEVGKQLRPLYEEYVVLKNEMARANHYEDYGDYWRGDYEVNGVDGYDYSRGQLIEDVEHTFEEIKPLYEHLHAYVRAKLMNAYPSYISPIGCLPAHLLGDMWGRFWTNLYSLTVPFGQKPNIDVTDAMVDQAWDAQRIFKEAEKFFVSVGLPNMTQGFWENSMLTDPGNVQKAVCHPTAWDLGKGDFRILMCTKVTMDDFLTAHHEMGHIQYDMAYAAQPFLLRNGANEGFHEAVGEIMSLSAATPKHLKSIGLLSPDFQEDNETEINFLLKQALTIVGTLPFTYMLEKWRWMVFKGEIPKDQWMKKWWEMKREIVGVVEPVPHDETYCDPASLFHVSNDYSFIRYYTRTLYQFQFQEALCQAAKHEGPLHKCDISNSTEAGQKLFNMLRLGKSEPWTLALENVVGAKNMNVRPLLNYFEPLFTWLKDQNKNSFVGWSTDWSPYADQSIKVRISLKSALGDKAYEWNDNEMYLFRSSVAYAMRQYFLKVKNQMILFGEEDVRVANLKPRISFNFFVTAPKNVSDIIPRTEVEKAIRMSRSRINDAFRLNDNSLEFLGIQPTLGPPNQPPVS

[4] = molecular target: T2, recombinant human ACE2 (rhACE2) (Homo sapiens, UniProt Q9BYF1); assay: ACE2 inhibitor screening assay (exopeptidase activity), CLQ and analogues, ZnCl2; assay type: biochemical
T2 construct: purchased BPS Bioscience 79923
T2 sequence (Q9BYF1 18-805): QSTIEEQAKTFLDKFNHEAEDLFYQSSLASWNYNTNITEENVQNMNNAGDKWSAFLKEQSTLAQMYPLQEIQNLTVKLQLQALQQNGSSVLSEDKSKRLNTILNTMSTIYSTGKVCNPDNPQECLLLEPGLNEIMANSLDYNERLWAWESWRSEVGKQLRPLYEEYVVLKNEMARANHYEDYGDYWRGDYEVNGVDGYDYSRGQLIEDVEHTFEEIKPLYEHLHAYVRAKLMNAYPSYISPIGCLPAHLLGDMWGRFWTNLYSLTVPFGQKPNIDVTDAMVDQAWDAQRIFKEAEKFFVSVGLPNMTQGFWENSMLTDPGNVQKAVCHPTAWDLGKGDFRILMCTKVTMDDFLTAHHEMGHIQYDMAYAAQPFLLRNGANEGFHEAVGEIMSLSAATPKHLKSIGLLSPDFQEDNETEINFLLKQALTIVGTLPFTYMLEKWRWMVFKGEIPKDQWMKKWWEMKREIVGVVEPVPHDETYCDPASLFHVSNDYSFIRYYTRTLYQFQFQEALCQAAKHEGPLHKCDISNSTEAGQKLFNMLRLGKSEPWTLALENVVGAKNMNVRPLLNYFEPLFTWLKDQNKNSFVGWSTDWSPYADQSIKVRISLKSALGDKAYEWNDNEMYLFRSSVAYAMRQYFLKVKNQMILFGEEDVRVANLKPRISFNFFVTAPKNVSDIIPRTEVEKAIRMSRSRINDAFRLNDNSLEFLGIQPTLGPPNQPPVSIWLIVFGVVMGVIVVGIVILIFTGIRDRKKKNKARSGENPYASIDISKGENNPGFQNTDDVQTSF
Protocol: An ACE2 inhibitor screening assay kit with fluorogenic substrate (Catalogue #79923) was purchased from BPS Bioscience (San Diego, CA) and adapted to measure the exopeptidase activity of ACE2 in the presence and absence of inhibitors. The fluorescence assay was performed using a black flat-bottom 96-well plate with a final reaction volume of 50 μL following the manufacturer's instructions. 10 mM stock solutions of the compounds were prepared in Dimethyl sulfoxide (DMSO). Next, the compounds were serially diluted in DMSO as follows: 100 μM, 50 μM, 10 μM, 1 μM, 0.5 μM, and 0.1 μM for CLQ and CLBQ14 as well as 10 μM and 1 μM for CLCQ. All experiments were performed in triplicates. Each plate contained a positive control of enzyme-treated with vehicle alone (2% DMSO) and a blank control with no enzyme. Briefly, each reaction contained 24 μL of purified recombinant human ACE2 protein (0.42 ng/L) in ACE2 buffer, 1 μL of compound at serially diluted concentrations, and 25 μL ACE2 fluorogenic substrate. The total reaction volume was 50 μL. […] Thereafter, the fluorescence intensities (λExcitation=535 nm, λEmission=595 nm) were measured using a Beckman Coulter DTX880 multimode plate reader. […]
The effects of CLQ, CLBQ14, and CLCQ on the exopeptidase activity of rhACE2 were determined using a fluorometric assay provided by BPS Bioscience and adapted accordingly. […]

in vitro [5] = details: human
[6] = Severe acute respiratory syndrome coronavirus 2, Vero C1008, 72 h, read-out: IC50 against SARS-CoV-2 infection induced CPE
[7] = 50% cytotoxic concentration (CC50), Vero E6, 72 hours, Examples A and B, highest concentration 30 μM
[8] = Severe acute respiratory syndrome coronavirus 2, Vero C1008, Vero E6, Example B, highest concentration tested 30 μM, read-out: IC50 against SARS-CoV-2 infection induced CPE
[9] = Example C (Table 3), read-out: IC 50 against SARS-COV-2 Induced Cytopathic Effect in Vero E6 Cells
[10] = Severe acute respiratory syndrome coronavirus 2, Vero C1008, Example C (Table 3), read-out: IC 50 against SARS-COV-2 Induced Cytopathic Effect in Vero E6 Cells
[11] = Cytotoxicity CC50, Vero E6, 72 hours, Example C (Table 4)
[12] = Severe acute respiratory syndrome coronavirus 2, A549, 72 h
[13] = Cytotoxicity CC50, A549 cells, 72 hours

SMILES	Concentration at Maximum % Inhibition [1]	Maximum Inhibition [1]	Conc. at Max. % Viability (Vero E6 cells)	Conc. at Min. % Viability (Vero E6 cells)	Max. Viability (Vero E6 cells)	Min. Viability (Vero E6 cells)	Concentration at Maximum % Inhibition (SARS-CoV-2 USA_WA1/2020; Example C (Table 3))	Maximum Inhibition (SARS-CoV-2 USA_WA1/2020; Example C (Table 3))	Conc. at Max. % Viability (A549 cells)	Conc. at Min. % Viability (A549 cells)	Max. Viability (A549 cells)	Min. Viability (A549 cells)	IC50 (SARS-CoV-2 USA_WA1/2020; [6])	IC50 (SARS-CoV-2 USA_WA1/2020; [8])	also measured
CC(C)C[C@H](NC(=O)OCc1ccccc1)C(=O)N[C@@H](CC(C)C)C(=O)N[C@@H](Cc1ccc(O)cc1)C(=O)CF [Calpain Inhibitor IV] (Cbz-Leu-Leu-Tyr-CH2F)	.0028 µM	99.56%	0.056 µM	0.028 µM	106.84%	99.77%	7.17 µM	115.91%	.090 µM	.0056 µM	94.37%	77.49%	–	–	IC50 [1]: 0.5 nM; CC50 (Vero E6 cells; read-out: Cytotoxicity CC50, Vero E6, 72 hours): > 7.17 µM; IC50 (SARS-CoV-2 USA_WA1/2020; Vero E6, Example B, highest concentration tested 30 μM, read-out: IC50 against SARS-CoV-2 infection induced CPE): 0.29 µM; IC50 (SARS-CoV-2 USA_WA1/2020; read-out: IC 50 against SARS-COV-2 Induced Cytopathic Effect in Vero E6 Cells): 3.73 µM; IC50 (SARS-CoV-2 USA_WA1/2020; read-out: IC50 against SARS-CoV-2 infection induced CPE): 0.41 µM; CC50 (A549 cells; read-out: Cytotoxicity CC50, 72 hours): > 179 nM
Oc1c(Cl)cc(Cl)c2cccnc12 [CLCQ, 5,7-Dichloro-8-hydroxyquinoline]	–	–	–	–	–	–	–	–	–	–	–	–	16.3 µM	–	CC50 (in vitro [2]; [7]): > 30 µM
CCN(CCO)CCCC(C)Nc1ccnc2cc(Cl)ccc12 (centres unmarked) [Hydroxychloroquine]	–	–	–	–	–	–	–	–	–	–	–	–	5.04 µM	5.16 µM	–
Oc1c(I)cc(Cl)c2cccnc12 [CLQ, 5-chloro-7-iodo-8-quinolinol]	–	–	–	–	–	–	–	–	–	–	–	–	12.6 µM	–	IC50 [3]: 18.2 µM; CC50 at 72 h (in vitro [2]; [7]): > 30 µM; IC50 ([4]; 2.5 hours, room temperature, read-out: IC50 against rhACE2 exopeptidase activity): 5.36 µM
CC(C)(C)[C@H](NC(=O)C(F)(F)F)C(=O)N1C[C@H]2[C@@H]([C@H]1C(=O)N[C@H](C#N)C[C@@H]1CCNC1=O)C2(C)C [PF-07321332]	0.5 µM	99.67%	–	–	–	–	–	–	–	–	–	–	–	–	IC50 ([1]; listed as Paxlovid): 50 nM; IC50 [1]: 57 nM
CCOC(=O)[C@H]1O[C@@H]1C(=O)N[C@@H](CC(C)C)C(=O)NCCC(C)C [Aloxistatin]	–	–	0.234 µM	0.117 µM	106.71%	93.02%	15 µM	130.81%	–	–	–	–	16.7 µM	21.8 µM	IC50 (SARS-CoV-2 USA_WA1/2020; [9]): 4.59 µM; IC50 (SARS-CoV-2 USA_WA1/2020; [10]): 4.58 µM; CC50 at 72 h (in vitro [2]; [11]): > 30 µM
Oc1c(Br)cc(Cl)c2cccnc12 [CLBQ14, 7-bromo-5-chloro-8-hydroxyquinoline]	–	–	–	–	–	–	–	–	–	–	–	–	14.7 µM	–	inhibition at 30 µM (SARS-CoV-2 USA_WA1/2020; Severe acute respiratory syndrome coronavirus 2, Vero C1008, at 30 μM, Example A, read-out: maximum inhibition of CPE): ~103%; CC50 at 72 h (in vitro [2]; [7]): > 30 µM
CCN(CC)CCCC(C)Nc1ccnc2cc(Cl)ccc12 (centres unmarked) [Chloroquine]	15 µM	99.53%	0.469 µM	3.750 µM	99.66%	90.50%	30 µM	114.51%	.023 µM	30 µM	117.48%	9.11%	1.1 µM	3.56 µM	IC50 [1, 12]: 3300 nM; CC50 at 72 h (in vitro [5]): 18.4 µM; IC50 (SARS-CoV-2 USA_WA1/2020; [10]): 8.85 µM; CC50 at 72 h (in vitro [2]): > 30 µM
CCC(CC)COC(=O)[C@H](C)N[P@](=O)(OC[C@H]1O[C@@](C#N)(c2ccc3c(N)ncnn23)[C@H](O)[C@@H]1O)Oc1ccccc1 [Remdesivir]	1.5 µM	99.58%	3.750 µM	0.117 µM	100.73%	91.15%	30 µM	120.89%	.006 µM	0.094 µM	95.46%	84.65%	4.42 µM	8.54 µM	CC50 (in vitro [5]; [13]): > 3000 nM; IC50 (SARS-CoV-2 USA_WA1/2020; [9]): 16.1 µM; IC50 (SARS-CoV-2 USA_WA1/2020; [10]): 16 µM; CC50 (in vitro [2]; [11]): > 30 µM
[Cl-].[Cl-].[Zn+2] [ZnCl2, Zinc Chloride]	–	–	–	–	–	–	–	–	–	–	–	–	–	–	effect on rhACE2 exopeptidase activity ([4]; 100 μM to 100 nM): increasing exopeptidase activity
CC(C)C(=O)OC[C@H]1O[C@@H](n2ccc(NO)nc2=O)[C@H](O)[C@@H]1O [Molnupiravir]	10 µM	91.12%	–	–	–	–	–	–	.002 µM	0.014 µM	98.56%	88.88%	–	–	IC50 [1, 12]: 4200 nM; CC50 at 72 h (in vitro [5]; [13]): > 10 µM
